Data: ChEMBL document CHEMBL1201862, “PubChem BioAssay data set” (2004)
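Where inhibition never reached the appropriate level, the endpoint shown equals the highest concentration tested. Otherwise, values were interpolated linearly from a five-concentration, 48-hour dose response in 96-well plates. GI50 marks 50% less growth.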 The source made the active and inactive calls. Rule as the data show it: active = GI50 up to about 1.1 µM and inactive = higher.

Tests used:
Assay in all cases: NCI anticancer screen, dose series, 48 h
RPMI-8226 = test system: RPMI-8226
HCT-15 = test system: HCT-15
OVCAR-3 = test system: OVCAR-3
HCC 2998 = test system: HCC 2998
K562 = test system: K562
LOX IMVI = test system: LOX IMVI
SK-MEL-5 = test system: SK-MEL-5
A549 = test system: A549
UACC-257 = test system: UACC-257
NCI-H23 = test system: NCI-H23
CAKI-1 = test system: CAKI-1
SF-539 = test system: SF-539
HL-60 = test system: HL-60
NCI/ADR-RES = test system: NCI/ADR-RES
SW-620 = test system: SW-620
PC-3 = test system: PC-3
SF-295 = test system: SF-295
NCI-H522 = test system: NCI-H522
Hs-578T = test system: Hs-578T
RXF 393 = test system: RXF 393

Measured: GI50

C/C(=N\NC(=S)Nc1ccc([N+](=O)[O-])cc1)c1nc2cccnc2[nH]1
0.617 µM: HCT-15
active: OVCAR-3 0.299 µM | LOX IMVI 0.442 µM | SK-MEL-5 0.991 µM | A549 0.783 µM | UACC-257 0.565 µM | NCI-H23 0.713 µM | CAKI-1 1 µM | SF-539 0.288 µM | HL-60 0.652 µM | SW-620 0.906 µM | SF-295 0.352 µM | NCI-H522 1.06 µM
inactive: RPMI-8226 1.87 µM | HCC 2998 1.15 µM | K562 1.55 µM | NCI/ADR-RES 1.13 µM | PC-3 1.24 µM | Hs-578T 1.27 µM

CN(/N=C/c1ccnc2ccccc12)c1ccc(Cl)cc1[N+](=O)[O-]
> 100 µM: HCT-15
inactive: OVCAR-3 80.9 µM | HCC 2998 > 100 µM | K562 > 100 µM | SK-MEL-5 6.12 µM | A549 > 100 µM | UACC-257 9.59 µM | NCI-H23 8.57 µM | CAKI-1 > 100 µM | SF-539 24.4 µM | HL-60 > 100 µM | RXF 393 37.3 µM | NCI/ADR-RES > 100 µM | SW-620 > 100 µM | PC-3 > 100 µM | SF-295 15.1 µM | NCI-H522 > 100 µM | Hs-578T 12.5 µM

CNc1ccc([S+]([O-])Nc2ccc(OC)cc2)cc1 (centres undefined)
inactive: RPMI-8226 > 100 µM | OVCAR-3 > 100 µM | HCC 2998 50.2 µM | K562 21.3 µM | LOX IMVI 7.38 µM | SK-MEL-5 19.3 µM | A549 66.2 µM | UACC-257 > 100 µM | NCI-H23 > 100 µM | CAKI-1 65.5 µM | SF-539 33.2 µM | HL-60 54.6 µM | NCI/ADR-RES 27.9 µM | SW-620 31.6 µM | PC-3 > 100 µM | SF-295 > 100 µM | NCI-H522 > 100 µM | Hs-578T > 100 µM
> 100 µM: HCT-15

O/N=C1/Nc2cc(Cl)ccc2C(=S)N2CSCC12 (centres undefined)
inactive: RPMI-8226 > 100 µM | OVCAR-3 > 100 µM | HCC 2998 > 100 µM | K562 87.3 µM | LOX IMVI > 100 µM | SK-MEL-5 > 100 µM | A549 > 100 µM | UACC-257 > 100 µM | CAKI-1 > 100 µM | RXF 393 > 100 µM | NCI/ADR-RES > 100 µM | SW-620 > 100 µM | PC-3 > 100 µM | SF-295 > 100 µM | NCI-H522 > 100 µM | Hs-578T > 100 µM
> 100 µM: HCT-15

C=C[C@]1(C)CC[C@]2(C)C(CC[C@@]3(C)C2C[C@H](O)[C@H](O)[C@@]3(C)O)C1 (some centres undefined)
inactive: RPMI-8226 > 100 µM | OVCAR-3 > 100 µM | HCC 2998 > 100 µM | K562 > 100 µM | LOX IMVI > 100 µM | SK-MEL-5 > 100 µM | A549 > 100 µM | UACC-257 > 100 µM | NCI-H23 > 100 µM | CAKI-1 > 100 µM | SF-539 > 100 µM | HL-60 > 100 µM | NCI/ADR-RES > 100 µM | SW-620 > 100 µM | PC-3 > 100 µM | SF-295 > 100 µM | NCI-H522 > 100 µM | Hs-578T > 100 µM
> 100 µM: HCT-15

CC(=O)Nc1c(S(=O)(=O)c2ccccc2)c(C)c(C)n1Cc1ccccc1
inactive: RPMI-8226 > 100 µM | OVCAR-3 52.8 µM | HCC 2998 > 100 µM | K562 > 100 µM | SK-MEL-5 83.8 µM | A549 > 100 µM | UACC-257 > 100 µM | NCI-H23 > 100 µM | CAKI-1 > 100 µM | HL-60 > 100 µM | RXF 393 > 100 µM | NCI/ADR-RES > 100 µM | SW-620 > 100 µM | PC-3 44.9 µM | SF-295 > 100 µM | NCI-H522 > 100 µM | Hs-578T > 100 µM
> 100 µM: HCT-15

CC(C)(C)OC(=O)N/C(C=O)=C\C1CCCCC1
18.8 µM: HCT-15
inactive: OVCAR-3 24.1 µM | HCC 2998 19.8 µM | K562 22.6 µM | LOX IMVI 14.3 µM | SK-MEL-5 15.3 µM | A549 > 100 µM | UACC-257 20.4 µM | NCI-H23 23.7 µM | CAKI-1 20.4 µM | SF-539 28.4 µM | HL-60 25.4 µM | RXF 393 23.4 µM | NCI/ADR-RES 18.3 µM | SW-620 27.3 µM | PC-3 17.3 µM | SF-295 29.8 µM | NCI-H522 45.7 µM | Hs-578T 27.3 µM
